Data published in patent US20160317473A1, “METHODS OF TREATING OR PREVENTING BRAIN DAMAGE DUE TO HYPOXIC-ISCHEMIA” (EMORY UNIVERSITY, priority 2014, published 2016).
Entries after “also recorded” stand apart in the source; their conditions may differ.

Tests used:
[1] = test system: LPS/HI-injured P7 rat pups; assay: LPS-sensitized HI (LPS/HI) brain injury model in P7 rats; format: in vivo
Protocol: To test whether intrauterine infection accelerates the development of TH17 lymphocytes, the expression of IL-23 receptor (IL-23R) mRNA, a marker of TH17 cells, was compared in aliquots of cord blood mononuclear cells isolated from late preterm neonates (32-36 gestational weeks) with and without histological chorioamnionitis. […] A well-characterized LPS-sensitized HI brain injury model in P7 rats was used to compare the effects of low-dose LPS (0.3 mg/kg, IP), HI, and combined LPS/HI on the expression of IL-23R mRNA in the peripheral blood mononuclear cells.
The effects of FTY720 administration (1 μg/g, IP) after LPS/HI insult in P7 rat pups were examined.
(§1) Flow cytometry we used to compare the percentage of CD4+ IL-17A+T-cells at 24 h after LPS, HI (90 min), or LPS+80 min HI brain injury. A longer duration of pure-HI insult was chosen because 80-min HI produced milder brain damage and little neuroinflammation. The TH17/IL-17 activity was compared under pure-HI (90 min) and LPS/HI (80 min) insults that produce similar levels of brain injury. […] The dual LPS/HI insult led to a significant increase to 21% of CD4+ IL-17A+ T-cells, which was reduced to 12% by FTY720 treatment (FIG. 3A).
(§2) Whether (p)FTY720 exerts direct neuroprotection was investigated. The effects of FTY720 on pure-HI (90 min) and LPS-sensitized HI insult (80 min) were compared reasoning that FTY720 should oppose both insults if its benefits are derived primarily from neuronal protection. Of note, because 80 min pure-HI insult caused little brain damage, a longer duration of pure-HI (90 min) we used in this experiment.
Magnetic resonance imaging (MRI) and behavioral testing were used to assess both acute and long-term effects of FTY720 treatment in LPS/HI injury. […] Two weeks later, the TBSS-identified at-risk gray and white matter became atrophic or distorted in saline-treated rat pups.

[2] = test system: pure-HI injured rat pups; assay: pure-HI (90 min) brain injury in rat pups; format: in vivo
Protocol: as §1, §2

[3] = test system: microglial activation in P7 rats; assay: intracerebroventricular (ICV) injection of LPS in P7 rats, model of direct microglial activation; format: in vivo, rat; conditions: FTY720 1 μg/g IP; LPS 2 μg ICV
Protocol: (§3) Experiments herein indicate FTY720 primarily blocks brain influx of leukocytes to prevent LPS/HI-induced neuroinflammation. […] To distinguish between these two scenarios, the effects of FTY720 was tested on the MCP1 induction following cerebral ventricle-injection of LPS, a paradigm of direct microglial activation. […] Intracerebroventricular (ICV) injection of LPS was performed in bitransgenic CX3CR1-GFP; CCR2-RFP mice, in which the microglia and circulating monocytes are marked by the green and red fluorescence protein, respectively. In unchallenged mice, the brains were largely devoid of monocytes and the microglial processes were excluded from the hippocampal pyramidal cell layer.

[4] = test system: microglia and monocytes in CX3CR1-GFP; CCR2-RFP mice; assay: ICV injection of LPS in P10 CX3CR1-GFP; CCR2-RFP mice; format: in vivo; conditions: 24 h after ICV LPS 1 μg; FTY720 1 μg/g
Protocol: In untouched mice, few GFP+ microglial processes extended into the pyramidal cell layer in the hippocampal (CA), and almost no RFP+ monocytes were detected in the brain.
as §3

[5] = test system: SM826 microglial cells; assay: LPS-induced activation of immortalized microglia SM826 cells; format: cell-based
Source text: These in-vivo and in-vitro results argued against direct inhibition of microglia by FTY720, which prompted us to examine the expression of S1P receptor isoforms in neonatal rat microglia. […] Thus, the effects of pFTY720 and S1P on LPS-induced expression of IL-23 (a key factor for TH17 cell differentiation), TNFα (Tumor Necrosis Factor-alpha), and iNOS mRNA were compared. […] Finally, the effects of S1P and Tat-NBD, an anti-NFKB peptide, were compared on the intracellular signaling responses to LPS in immortalized microglial cells.

[6] = test system: LPS/HI-injured P10 mice; assay: LPS/HI injury in P10 mice; format: in vivo; conditions: two doses of 25 mg/kg, 16 h pre- & 1 h post-LPS/HI
Protocol: An experiment was performed to test the effects of SR1001, a small-molecule inhibitor of RORc, in LPS/HI injury in P10 mice.

[7] = molecular target: S1PR2 (Homo sapiens, UniProt O95136); conditions: Mandala et al., 2002; cited from earlier work
Sequence of S1PR2 (O95136 whole entry, species assumed): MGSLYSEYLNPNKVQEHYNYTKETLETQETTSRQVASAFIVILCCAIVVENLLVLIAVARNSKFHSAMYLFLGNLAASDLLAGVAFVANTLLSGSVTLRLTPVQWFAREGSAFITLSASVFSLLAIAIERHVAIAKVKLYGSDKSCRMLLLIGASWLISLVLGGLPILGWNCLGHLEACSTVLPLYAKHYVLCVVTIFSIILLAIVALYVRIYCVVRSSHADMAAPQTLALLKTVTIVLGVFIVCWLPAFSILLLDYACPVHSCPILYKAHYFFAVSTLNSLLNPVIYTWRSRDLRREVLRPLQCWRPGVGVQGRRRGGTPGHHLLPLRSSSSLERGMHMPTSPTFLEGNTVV

## CCCCCCCCc1ccc(CCC(N)(CO)CO)cc1 [FTY720, 2-amino-2-[2-(4-octylphenyl)ethyl]propane-1,3-diol]
[1]; 18-24 h following LPS/HI
  LPS/HI-induced MCP1 expression in the brain (ELISA): markedly reduced; also recorded: significant attenuation
  LPS/HI-induced MCP1 in the plasma (ELISA): failed to prevent
  post-LPS/HI induction of TSPO mRNA (marker for activated microglia): markedly reduced
[1]; 4 h after LPS/HI
  ribbon-like CD43 immunoreactivity in the ipsilateral choroid plexus: preserved; also recorded: less pronounced
[1]; 4 h after LPS/HI, FTY720 1 μg/g IP
  IL-23R mRNA levels in peripheral blood mononuclear cells (normalized to actin): blocked the increase
[1]; 4 h post-LPS/HI
  influx of CD43+ leukocytes in choroid plexus / ipsilateral subcortical white matter: mitigated the influx; also recorded: absence of CD43+ cells; also recorded: not in the contralateral hemisphere or after the FTY720 treatment
[1]; 4 h recovery from LPS/HI
  nuclear NF-κB activity (EMSA, brain nuclear extract): greatly reduced; also recorded: prevented the high-order DNA-protein complex
  reduction/degradation of cytoplasmic IκBα in the ipsilateral hemisphere: greatly reduced; also recorded: averted
[1]; 24 h after LPS/HI
  BBB permeability (NaF fluorescence / extravasation): markedly attenuated; also recorded: significantly reduced
  MMP9 induction/activity in ipsilateral hemisphere (zymogram): diminished; also recorded: absence of MMP9 induction
[1]; 24 h after LPS/HI, vs saline
  ADC (apparent diffusion coefficient) signals in the cerebral cortex (MRI): mitigated; also recorded: significant preservation
[1]; 24 h after LPS/HI, 9.7-fold without treatment
  increase of brain MCP1 protein (cytokine array): 3 fold
[1]; 24 h post-LPS/HI
  brain cytoarchitectural distinctions in the ipsilateral hemisphere (MEMRI): preserved
[1]; 24 h recovery
  increased sodium concentration in the ipsilateral hemisphere (sodium MRI): mitigated
[1]; 24 h recovery after LPS/HI
  CD43+ leukocytes in the cortical gray matter: absent
  accumulation of CD43+ leukocytes in the leptomeningeal space: prevented the accumulation
[1]; 24 days of age after LPS/HI
  latency to fall on rotarods: near-normal
[1]; LPS/HI injury
  brain atrophy: dose-dependent reduction
[1]; RT-PCR
  LPS/HI-induced brain Gata3 mRNA: not
  LPS/HI-induced brain IL-13 mRNA: not
  LPS/HI-induced brain IL-17A mRNA: significantly decreased
  LPS/HI-induced brain IL-23 receptor mRNA: significantly decreased
  LPS/HI-induced brain RORc mRNA: significantly decreased
  LPS/HI-induced brain Tbx21/T-bet mRNA: significantly attenuated; also recorded: significantly decreased
[1]; by 24 days of age after LPS/HI
  gain in body weight: near-normal gain
[1]; rat, in vivo
  impairment of neonatal development: does not impair neonatal development
[1]; treatment started within 30 min after injury
  LPS/HI-induced tissue loss salvaged in the hippocampus and the cerebral cortex: > 90%
[2]; 24 h recovery, pure-HI
  HI-induced MMP9 activation in ipsilateral cortical hemisphere (zymogram): failed to prevent
[2]; pure-HI 90 min, acute FTY720 treatment
  brain atrophy / injury after pure-HI: failed to prevent; also recorded: ineffective
[2]; rat, in vivo
  worsening of pure-HI brain injury: does not impair neonatal development or worsen pure-HI brain injury
[3]
  induction of MCP1 after ICV injection of LPS: unable to prevent
[4]
  microglial processes in hippocampal pyramidal cell layer and monocytes in the brain: showed intrusion of hypertrophic microglia processes in the hippocampal pyramidal cell layer and a massive influx of monocytes; also recorded: hypertrophic microglial processes extended into the pyramidal cell layer and a large number of monocytes were found in the brain

## CCCCCCCCCCCCC/C=C/[C@@H](O)[C@@H](N)COP(=O)(O)O [S1P, sphingosine-1-phosphate]
[5]
  LPS-induced IL-23 mRNA: neither phospho-FTY720 nor sphingosine-1-phosphate (S1P) prevented
[5]; 5, 20 μM, LPS 5 ng/ml, 30 min
  LPS-induced IκBα degradation in the cytosol (immunoblot): no opposing effects; also recorded: lacked this effect
  LPS-induced nuclear accumulation of NFκB/RelA (immunoblot): no opposing effects; also recorded: lacked this effect
[5]; negative feedback of the signaling pathway
  S1PR1 mRNA: dose-dependent reduction
[5]; up to 10 μM
  microglial activation: LPS-induced expression of IL-23, TNFα and iNOS mRNA: neither pFTY720 nor S1P (up to 10 μM) suppressed

## CC(=O)Nc1nc(C)c(S(=O)(=O)Nc2ccc(C(O)(C(F)(F)F)C(F)(F)F)cc2)s1 [SR1001, N-(5-(N-(4-(1,1,1,3,3,3-hexafluoro-2-hydroxypropan-2-yl)phenyl)sulphamoyl)-4-methylthiazol-2-yl)acetamide]
[6]
  brain atrophy (tissue loss): significantly reduced
  induction of TH17 cells: significantly reduced
  microglial activation/TSPO marker: significantly reduced

## CCCCCCCCc1ccc(CCC(N)(CO)COP(=O)(O)O)cc1 (centres unmarked) [phospho-FTY720]
[5]
  LPS-induced IL-23 mRNA: neither phospho-FTY720 nor sphingosine-1-phosphate (S1P) prevented
[5]; 2-10 μM, LPS 5 ng/ml
  LPS-induced COX2 expression: failed to prevent
  LPS-induced iNOS expression: failed to prevent
[5]; up to 10 μM
  microglial activation: LPS-induced expression of IL-23, TNFα and iNOS mRNA: neither pFTY720 nor S1P (up to 10 μM) suppressed
[5]; up to 10 μM, LPS 5 ng/ml
  LPS-mediated induction of IL-1β: failed to attenuate
  LPS-mediated induction of IL-6: failed to attenuate
[7]
  binding affinity to the S1PR2 isoform: lacks binding affinity
